Earlier results, collected in patent US9795689B2, “Crosslinked polymer nano-assemblies and uses thereof” (University of Massachusetts, priority 2012, dated 2017).

pKa of the protonated form of the amine: around 6.2
Compound: C=C(C)C(=O)OCCN(C(C)C)C(C)C [DPA, 2-(diisopropylamino)ethyl methacrylate]
